Measured values as given in US8476265B2, “Compounds-801” (AstraZeneca AB, priority 2010, dated 2013).

Assays:
Adrenergic β2 = target: T1, Adrenergic β2 (Homo sapiens, UniProt P07550); experiment: Adrenergic β2 mediated cAMP production in H292 cells, single concentration 1 μM; assay type: cell-based; details: NCI-H292, 1 μM compound, cAMP as percentage of the maximum response generated by 1E-07M formoterol, read-out: β2 % effect @1 uM
T1 construct: Adherent H292 cells are removed from tissue culture flasks by treatment with Accutase™ cell detachment solution; endogenous in cells; host or cells: H292 cells
Procedure: The following experimental procedure was used to measure the beta-2% effect at 1 μM for the compounds of Examples 99-175. Adrenergic p2 Mediated cAMP Production Cell Preparation
H292 cells are grown in 225 cm2 flasks incubator at 37° C., 5% CO2 in RPMI medium containing 10% (v/v) FBS (foetal bovine serum) and 2 mM L-glutamine.
Compounds are prepared by an initial first dilution into DMSO to give 1 mM stock concentration. This is followed by a 1 in 10 dilution of the stock concentration (10 μl stock compound +90 μl DMSO) to give 0.1 mM compound. A compound addition plate is prepared by making a further 1 in 25 dilution in assay buffer (HBSS solution containing 10 mM HEPES pH7.4 and 5 mM glucose) containing 4% dimethylsulfoxide. The final compound concentration in assay is 1 μM.
Adherent H292 cells are removed from tissue culture flasks by treatment with Accutase™ cell detachment solution for 15 minutes. Flasks are incubated for 15 minutes in a humidified incubator at 37° C., 5% CO2. Detached cells are re-suspended in RPMI media (containing 10% (v/v) FBS and 2 mM L-glutamine) at 0.1×10^6 cells per mL. 10000 cells in 100 μL are added to each well of a tissue-culture-treated 96-well plate and the cells incubated overnight in a humidified incubator at 37° C., 5% CO2. The culture media is removed and cells are washed twice with 100 μL assay buffer and replaced with 50 μL assay buffer (HBSS solution containing 10 mM HEPES pH7.4 and 5 mM glucose). Cells are rested at room temperature for 20 minutes after which time 25 μL of rolipram (1.2 mM made up in assay buffer) is added. Cells are incubated with rolipram for 10 minutes after which time 25 μl test compounds are added and the cells are incubated for 60 minutes at room temperature. The final rolipram concentration in the assay is 300 μM and final vehicle concentration is 1% (v/v) dimethylsulphoxide. The reaction is stopped by removing supernatants, washing once with 100 μL assay buffer and replacing with 50 μL lysis buffer. The cell monolayer is frozen at −80° C. for 30 minutes (or overnight).
AlphaScreen™ cAMP Detection
The concentration of cAMP (cyclic adenosine monophosphate) in the cell lysate is determined using AlphaScreen™ methodology. The frozen cell plate is thawed for 20 minutes on a plate shaker then 10 μL of the cell lysate is transferred to a 96-well white plate. 40 μl of mixed AlphaScreen™ detection beads (containing equal volumes of donor beads (pre-incubated with biotinylated cAMP in the dark for 30 minutes) and acceptor beads is added to each well and the plate incubated at room temperature for 3 hours in the dark. The AlphaScreen™ signal is measured using an EnVision spectrophotometer (Perkin-Elmer Inc.) with the recommended manufacturer's settings. Concentration of cAMP produced per well were calculated with reference to the cAMP standard curve determined in the same experiment and expressed as a percentage of the maximum response generated by 1E-07M formoterol.

[1] = target: T2, human muscarinic acetylcholine M3 receptor (Homo sapiens, UniProt P20309); experiment: Muscarinic 3 receptor binding assay ([3H]NMS competition, SPA), single concentration 1 μM; details: 1 μM compound; % inhibition specific [3H]-NMS binding
T2 construct: expressed in transfected cells; host or cells: CHO-K1 (Chinese Hamster Ovary) cell membranes
Procedure: The following experimental procedure was used to determine the M3% inhibition at 1 μM of the compounds of Examples 99-175
Muscarinic 3 Receptor Binding Assay
The activity (% inhibition specific binding) of compounds on the M3 receptor is determined by competition binding of [^3H]N-methyl scopolamine (NMS) to CHO-K1 (Chinese Hamster Ovary) cell membranes expressing the human muscarinic acetylcholine M3 receptor (M3-ACh) in a scintillation proximity assay (SPA) format. SPA beads are precoated with membranes and then incubated at 2 mg of beads per well with 1 μM compound of the invention, [^3H]NMS at 0.1 nM, quarter Kd (experimentally determined dissociation constant) and assay buffer (20 mM HEPES pH 7.4 containing 5 mM MgCl2 and 0.1% (w/v) bovine serum albumin). The assay is conducted in a final volume of 200 μL, in the presence of 1% (v/v) dimethyl sulphoxide (DMSO). Total binding of [^3H]NMS is determined in the absence of competing compound and non-specific binding of [^3H]NMS is determined in the presence of 1 μM atropine. The plates are incubated for 16 hours at room temperature and then read on Wallac Microbeta™ using a normalised ^3H protocol. The compound activity at 1 μM, defined as % inhibition specific [^3H]-NMS binding, is determined.

T1 sequence (P07550 whole entry): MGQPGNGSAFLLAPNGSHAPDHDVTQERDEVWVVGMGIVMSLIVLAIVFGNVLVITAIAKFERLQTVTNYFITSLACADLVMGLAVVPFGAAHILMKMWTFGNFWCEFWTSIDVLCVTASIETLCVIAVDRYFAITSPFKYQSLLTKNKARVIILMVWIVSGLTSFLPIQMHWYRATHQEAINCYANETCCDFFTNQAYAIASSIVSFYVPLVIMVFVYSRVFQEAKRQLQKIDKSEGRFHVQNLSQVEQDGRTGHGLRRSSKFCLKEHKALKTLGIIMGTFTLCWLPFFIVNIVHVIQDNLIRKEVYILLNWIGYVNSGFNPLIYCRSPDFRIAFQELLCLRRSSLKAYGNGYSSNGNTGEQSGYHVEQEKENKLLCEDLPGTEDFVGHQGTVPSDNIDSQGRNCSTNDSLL
T2 sequence (P20309 whole entry): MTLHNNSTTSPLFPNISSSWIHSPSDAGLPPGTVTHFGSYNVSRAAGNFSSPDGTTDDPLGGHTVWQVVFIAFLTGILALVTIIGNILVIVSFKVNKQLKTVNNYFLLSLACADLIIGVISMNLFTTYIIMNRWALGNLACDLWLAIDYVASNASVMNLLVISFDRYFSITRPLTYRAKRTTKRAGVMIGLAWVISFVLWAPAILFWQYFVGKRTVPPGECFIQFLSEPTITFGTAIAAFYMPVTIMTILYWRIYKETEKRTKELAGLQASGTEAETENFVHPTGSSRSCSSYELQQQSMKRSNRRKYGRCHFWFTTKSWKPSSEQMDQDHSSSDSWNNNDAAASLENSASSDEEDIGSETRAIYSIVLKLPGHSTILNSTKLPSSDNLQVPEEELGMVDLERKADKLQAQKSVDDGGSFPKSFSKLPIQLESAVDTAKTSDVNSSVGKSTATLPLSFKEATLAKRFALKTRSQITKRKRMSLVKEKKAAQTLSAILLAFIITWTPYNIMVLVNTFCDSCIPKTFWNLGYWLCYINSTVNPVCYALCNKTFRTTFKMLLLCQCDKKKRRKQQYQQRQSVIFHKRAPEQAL

SMILES | percent of formoterol maximum response at 1 µM (Adrenergic β2) [%] | inhibition at 1 µM [1] [%]
O=C1COc2c(CCNCCN(C(=O)CCOCCc3cccc(CN4CCC5(CC4)CN(C(=O)Cc4noc6ccccc46)CCO5)c3)C3CCCCC3)ccc(O)c2N1 [Example 124, 3-(3-((4-(2-(Benzo[d]isoxazol-3-yl)acetyl)-1-oxa-4,9-diazaspiro[5.5]undecan-9-yl)methyl)phenethoxy)-N-cyclohexyl-N-(2-(2-(5-hydroxy-3-oxo-3,4-dihydro-2H-benzo[b][1,4]oxazin-8-yl)ethylamino)ethyl)propanamide] | 101 | 100
O=C1COc2c(CCNCCN(C(=O)CCOCCc3cccc(CN4CCC5(CC4)CN(C(=O)CCCOCc4ccccc4)CCO5)c3)C3CCCCC3)ccc(O)c2N1 [Example 151, 3-(3-((4-(4-(Benzyloxy)butanoyl)-1-oxa-4,9-diazaspiro[5.5]undecan-9-yl)methyl)phenethoxy)-N-cyclohexyl-N-(2-(2-(5-hydroxy-3-oxo-3,4-dihydro-2H-benzo[b][1,4]oxazin-8-yl)ethylamino)ethyl)propanamide] | 113 | 97
O=C1COc2c(CCNCCN(C(=O)CCOCCc3cccc(CN4CCC5(CC4)CN(C(=O)c4cccc6cccnc46)CCO5)c3)C3CCCCC3)ccc(O)c2N1 [Example 100, N-Cyclohexyl-N-(2-(2-(5-hydroxy-3-oxo-3,4-dihydro-2H-benzo[b][1,4]oxazin-8-yl)ethylamino)ethyl)-3-(3-((4-(quinoline-8-carbonyl)-1-oxa-4,9-diazaspiro[5.5]undecan-9-yl)methyl)phenethoxy)propanamide] | 95 | 96
O=C1COc2c(CCNCCN(C(=O)CCOCCc3cccc(CN4CCC5(CC4)CN(C(=O)[C@H](O)c4cccc(Cl)c4)CCO5)c3)C3CCCCC3)ccc(O)c2N1 [Example 130, (R)-3-(3-((4-(2-(3-Chlorophenyl)-2-hydroxyacetyl)-1-oxa-4,9-diazaspiro[5.5]undecan-9-yl)methyl)phenethoxy)-N-cyclohexyl-N-(2-(2-(5-hydroxy-3-oxo-3,4-dihydro-2H-benzo[b][1,4]oxazin-8-yl)ethylamino)ethyl)propanamide] | 114 | 99
N#Cc1ccc(C(=O)N2CCOC3(CCN(Cc4cccc(CCOCCC(=O)N(CCNCCc5ccc(O)c6c5OCC(=O)N6)C5CCCCC5)c4)CC3)C2)cc1 [Example 156, 3-(3-((4-(4-Cyanobenzoyl)-1-oxa-4,9-diazaspiro[5.5]undecan-9-yl)methyl)phenethoxy)-N-cyclohexyl-N-(2-(2-(5-hydroxy-3-oxo-3,4-dihydro-2H-benzo[b][1,4]oxazin-8-yl)ethylamino)ethyl)propanamide] | 86 | 93
O=C1COc2c(CCNCCN(C(=O)CCOCCc3cccc(CN4CCC5(CC4)CN(C(=O)COCc4nc6ccccc6s4)CCO5)c3)C3CCCCC3)ccc(O)c2N1 [Example 126, 3-(3-((4-(2-(Benzo[d]thiazol-2-ylmethoxy)acetyl)-1-oxa-4,9-diazaspiro[5.5]undecan-9-yl)methyl)phenethoxy)-N-cyclohexyl-N-(2-(2-(5-hydroxy-3-oxo-3,4-dihydro-2H-benzo[b][1,4]oxazin-8-yl)ethylamino)ethyl)propanamide] | 103 | 101
Cc1cc2ncc(C(=O)N3CCOC4(CCN(Cc5cccc(CCOCCC(=O)N(CCNCCc6ccc(O)c7c6OCC(=O)N7)C6CCCCC6)c5)CC4)C3)c(C)n2n1 [Example 108, N-Cyclohexyl-3-(3-((4-(2,7-dimethylpyrazolo[1,5-a]pyrimidine-6-carbonyl)-1-oxa-4,9-diazaspiro[5.5]undecan-9-yl)methyl)phenethoxy)-N-(2-(2-(5-hydroxy-3-oxo-3,4-dihydro-2H-benzo[b][1,4]oxazin-8-yl)ethylamino)ethyl)propanamide] | 98 | 80
O=C1COc2c(CCNCCN(C(=O)CCOCCc3cccc(CN4CCC5(CC4)CN(C(=O)C(CO)c4ccccc4)CCO5)c3)C3CCCCC3)ccc(O)c2N1 (stereo not drawn) [Example 104, N-Cyclohexyl-3-(3-((4-(3-hydroxy-2-phenylpropanoyl)-1-oxa-4,9-diazaspiro[5.5]undecan-9-yl)methyl)phenethoxy)-N-(2-(2-(5-hydroxy-3-oxo-3,4-dihydro-2H-benzo[b][1,4]oxazin-8-yl)ethylamino)ethyl)propanamide] | 100 | 101

Further lines, results first:

percent of formoterol maximum response at 1 µM (Adrenergic β2) [%] | inhibition at 1 µM [1] [%] | SMILES
95 | 100 | O=C1COc2c(CCNCCN(C(=O)CCOCCc3cccc(CN4CCC5(CC4)CN(C(=O)c4ccc(F)cc4F)CCO5)c3)C3CCCCC3)ccc(O)c2N1 [Example 162, N-Cyclohexyl-3-(3-((4-(2,4-difluorobenzoyl)-1-oxa-4,9-diazaspiro[5.5]undecan-9-yl)methyl)phenethoxy)-N-(2-(2-(5-hydroxy-3-oxo-3,4-dihydro-2H-benzo[b][1,4]oxazin-8-yl)ethylamino)ethyl)propanamide]
97 | 99 | O=C1COc2c(CCNCCN(C(=O)CCOCCc3cccc(CN4CCC5(CC4)CN(C(=O)CC4C[C@@H]6CC[C@H]4C6)CCO5)c3)C3CCCCC3)ccc(O)c2N1 (stereo partly drawn) [Example 131, 3-(3-((4-(2-((1S,4R)-Bicyclo[2.2.1]heptan-2-yl)acetyl)-1-oxa-4,9-diazaspiro[5.5]undecan-9-yl)methyl)phenethoxy)-N-cyclohexyl-N-(2-(2-(5-hydroxy-3-oxo-3,4-dihydro-2H-benzo[b][1,4]oxazin-8-yl)ethylamino)ethyl)propanamide]
112 | 98 | CCOc1ccccc1CC(=O)N1CCOC2(CCN(Cc3cccc(CCOCCC(=O)N(CCNCCc4ccc(O)c5c4OCC(=O)N5)C4CCCCC4)c3)CC2)C1 [Example 170, N-Cyclohexyl-3-(3-((4-(2-(2-ethoxyphenyl)acetyl)-1-oxa-4,9-diazaspiro[5.5]undecan-9-yl)methyl)phenethoxy)-N-(2-(2-(5-hydroxy-3-oxo-3,4-dihydro-2H-benzo[b][1,4]oxazin-8-yl)ethylamino)ethyl)propanamide]
96 | 101 | O=C1COc2c(CCNCCN(C(=O)CCOCCc3cccc(CN4CCC5(CC4)CN(C(=O)c4cc(Br)c[nH]4)CCO5)c3)C3CCCCC3)ccc(O)c2N1 [Example 132, 3-(3-((4-(4-Bromo-1H-pyrrole-2-carbonyl)-1-oxa-4,9-diazaspiro[5.5]undecan-9-yl)methyl)phenethoxy)-N-cyclohexyl-N-(2-(2-(5-hydroxy-3-oxo-3,4-dihydro-2H-benzo[b][1,4]oxazin-8-yl)ethylamino)ethyl)propanamide]
